The nature of data set [1]: Stability of stapled cyclic peptides in GSH solution. The format is physicochemical. The following applies: around 1 mM peptide in H2O, 1 mM GSH, 37 °C, 48 h, HPLC read-out (212 nm). As to the method:
6. Stability test of stapled cyclic peptides
A 100 µL aliquot of stapled peptide (around 1 mM) in H2O was treated with 5.3 µL of a 20 mM GSH solution (to 1 mM) and the resulting mixture vortexed for 30 s and then shaken at 37 °C. After 48 h, an aliquot of each reaction mixture was analysed by HPLC [YMC-Pack Pro C18 column (5 µ, 250 mm × 10 mm), isocratic: acetonitrile+0.1% TFA /water+0.1% TFA (73- […]
(§1) 27), 15 min, λ = 212nm, flow=3.5)]. […]
(YMC-Pack Pro C18 column (5 µ, 250 mm × 10 mm), isocratic: acetonitrile+0.1% TFA […]
(§2) /water+0.1% TFA (73-27), 15 min, λ = 212nm, flow=3.5)).

Data set [2] is described as follows: Stability of stapled cyclic peptides in human plasma. The class given is in vitro ADME. The note with it: around 1 mM peptide in H2O (100 µL) + 1 µL reconstituted human plasma, 37 °C, 48 h, HPLC read-out (212 nm). As to the method:
6. Stability test of stapled cyclic peptides […]
as §1
A 100 µL aliquot of stapled peptide (around 1 mM) in H2O was treated with 1 µL of
reconstituted human plasma (Sigma-Aldrich) and the resulting mixture vortexed for 30 s and
then shaken at 37 °C. After 48 h, an aliquot of each reaction mixture was analysed by HPLC
(YMC-Pack Pro C18 column (5 µ, 250 mm × 10 mm), isocratic: acetonitrile+0.1% TFA
as §2

Data on two compounds can be found in paper PMC5698723, “Oxetane Grafts Installed Site‐Selectively on Native Disulfides to Enhance Protein Stability and Activity In Vivo” (Angewandte Chemie (International Ed. in English), 2017).

Structures are written as SMILES.

For `C[C@H](N)C(=O)NCC(=O)N[C@H]1CSCC2(COC2)CSC[C@@H](C(=O)O)NC(=O)[C@H](CO)NC(=O)[C@H]([C@@H](C)O)NC(=O)[C@H](Cc2ccccc2)NC(=O)[C@H]([C@@H](C)O)NC(=O)[C@H](CCCCN)NC(=O)[C@H](Cc2c[nH]c3ccccc23)NC(=O)[C@H](Cc2ccccc2)NC(=O)[C@H](Cc2ccccc2)NC(=O)[C@H](CC(N)=O)NC(=O)[C@H](CCCCN)NC1=O` [compound 3], the “stability in the presence of glutathione (GSH)” value in data set [1] was “remain intact”. In addition, the “stability in human plasma” value in data set [2] is given as “remain intact”.

In the case of `C[C@@H](O)[C@@H]1NC(=O)[C@H](CCCCN)NC(=O)[C@@H](Cc2c[nH]c3ccccc23)NC(=O)[C@H](Cc2ccccc2)NC(=O)[C@@H](NC(=O)[C@H](N)Cc2ccccc2)CSCC2(COC2)CSC[C@@H](C(=O)N[C@H](CO)[C@@H](C)O)NC1=O` [compound 5], in data set [1], the “stability in the presence of glutathione (GSH)” value is “remain intact”. For the same compound, the “stability in human plasma” value in data set [2] was “remain intact”.
